Laboratory results: paper PMC9583304 (ACS Omega, 2022)

Molecular target: T1, porcine pancreatic lipase (Sus scrofa, UniProt P00591)
T1 sequence (P00591 1-450): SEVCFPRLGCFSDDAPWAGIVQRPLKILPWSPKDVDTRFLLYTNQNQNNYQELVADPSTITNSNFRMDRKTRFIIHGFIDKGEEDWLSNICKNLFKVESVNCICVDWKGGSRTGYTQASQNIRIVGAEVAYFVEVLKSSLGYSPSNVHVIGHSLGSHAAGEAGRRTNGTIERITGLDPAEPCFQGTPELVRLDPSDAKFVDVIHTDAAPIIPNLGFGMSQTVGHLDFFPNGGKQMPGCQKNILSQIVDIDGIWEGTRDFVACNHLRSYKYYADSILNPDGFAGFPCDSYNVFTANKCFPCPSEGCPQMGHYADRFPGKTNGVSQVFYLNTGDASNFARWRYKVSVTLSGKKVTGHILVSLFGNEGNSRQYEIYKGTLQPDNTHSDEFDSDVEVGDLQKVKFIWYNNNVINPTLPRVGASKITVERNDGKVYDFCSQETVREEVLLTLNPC
Test: Pancreatic lipase assay
Format: biochemical

Q: `O=C(O[C@@H]1C=C[C@@H](OC(=O)c2ccccc2)[C@](O)(CO)[C@H]1O)c1ccccc1` (relative stereo) [Compound 1, (1R*,4R*,5S*,6S*)-5,6-dihydroxy-5-(hydroxymethyl)cyclohex-2-ene-1,4-diyl dibenzoate] was tested. Which IC50 did it give?
A: 11.2 µM
